Measurements reported in the supplement of paper PMC8612539.
In brackets after ≈: the same amount, converted by molar mass.

Tested on: Mannheimia haemolytica
Assay: minimum inhibitory concentration (MIC)
Description: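 Broth microdilution MIC (Sensititre BOPO7F bovine plate, CLSI methods) of 19 antimicrobials against field isolates of P. multocida, M. haemolytica, H. somni (deep nasopharyngeal swabs) and E. coli, Enterococcus spp. (rectal swabs) from weaned dairy heifers. Incubation 16-24 h at 35 C. MIC is the lowest concentration preventing visible growth. Values with <= or > lie at the tested range limits. Trimethoprim-sulfamethoxazole is given as the trimethoprim component of a 1:19 mixture.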

C=C[C@]1(C)C[C@@H](OC(=O)CSCCN(CC)CC)[C@]2(C)[C@H](C)CC[C@]3(CCC(=O)[C@H]32)[C@@H](C)[C@@H]1O [Tiamulin]
Details | minimum inhibitory concentration [µg/mL]
isolate (source animal id): 8 | 8 (≈ 16.2 µM)
isolate (source animal id): 13 | 8 (≈ 16.2 µM)
isolate (source animal id): 18 | 8 (≈ 16.2 µM)
isolate (source animal id): 21 | 8 (≈ 16.2 µM)
isolate (source animal id): 25 | 32 (≈ 64.8 µM)
isolate (source animal id): 27 | 16 (≈ 32.4 µM)
isolate (source animal id): 28 | 32 (≈ 64.8 µM)
isolate (source animal id): 30 | 8 (≈ 16.2 µM)
isolate (source animal id): 31 | 32 (≈ 64.8 µM)
isolate (source animal id): 32 | 8 (≈ 16.2 µM)
isolate (source animal id): 34 | 8 (≈ 16.2 µM)
isolate (source animal id): 36 | 32 (≈ 64.8 µM)
isolate (source animal id): 37 | 16 (≈ 32.4 µM)
isolate (source animal id): 40 | 8 (≈ 16.2 µM)
isolate (source animal id): 41 | 8 (≈ 16.2 µM)
isolate (source animal id): 43 | 8 (≈ 16.2 µM)
isolate (source animal id): 46 | 32 (≈ 64.8 µM)
isolate (source animal id): 49 | 16 (≈ 32.4 µM)
isolate (source animal id): 50 | 32 (≈ 64.8 µM)
isolate (source animal id): 51 | 8 (≈ 16.2 µM)
isolate (source animal id): 52 | 8 (≈ 16.2 µM)
isolate (source animal id): 53 | 8 (≈ 16.2 µM)
isolate (source animal id): 55 | 8 (≈ 16.2 µM)
isolate (source animal id): 56 | 8 (≈ 16.2 µM)
isolate (source animal id): 57 | 8 (≈ 16.2 µM)
isolate (source animal id): 100 | 16 (≈ 32.4 µM)
isolate (source animal id): 103 | 32 (≈ 64.8 µM)
isolate (source animal id): 107 | 16 (≈ 32.4 µM)
isolate (source animal id): 108 | 16 (≈ 32.4 µM)
isolate (source animal id): 112 | 16 (≈ 32.4 µM)
isolate (source animal id): 113 | 8 (≈ 16.2 µM)
isolate (source animal id): 121 | 32 (≈ 64.8 µM)
isolate (source animal id): 122 | 16 (≈ 32.4 µM)
isolate (source animal id): 123 | 8 (≈ 16.2 µM)
isolate (source animal id): 126 | 32 (≈ 64.8 µM)
isolate (source animal id): 133 | 8 (≈ 16.2 µM)
isolate (source animal id): 135 | 8 (≈ 16.2 µM)
isolate (source animal id): 138 | 32 (≈ 64.8 µM)
isolate (source animal id): 141 | 8 (≈ 16.2 µM)
isolate (source animal id): 142 | 32 (≈ 64.8 µM)
isolate (source animal id): 145 | 32 (≈ 64.8 µM)
isolate (source animal id): 149 | 8 (≈ 16.2 µM)
isolate (source animal id): 151 | 16 (≈ 32.4 µM)
isolate (source animal id): 152 | 32 (≈ 64.8 µM)
isolate (source animal id): 154 | 16 (≈ 32.4 µM)
isolate (source animal id): 159 | 32 (≈ 64.8 µM)
isolate (source animal id): 162 | 16 (≈ 32.4 µM)
isolate (source animal id): 170 | > 32
isolate (source animal id): 171 | 16 (≈ 32.4 µM)
isolate (source animal id): 172 | 32 (≈ 64.8 µM)
isolate (source animal id): 173 | > 32
isolate (source animal id): 179 | 16 (≈ 32.4 µM)
isolate (source animal id): 180 | 16 (≈ 32.4 µM)
isolate (source animal id): 183 | 8 (≈ 16.2 µM)
isolate (source animal id): 186 | 8 (≈ 16.2 µM)
isolate (source animal id): 187 | 16 (≈ 32.4 µM)
isolate (source animal id): 188 | 8 (≈ 16.2 µM)
isolate (source animal id): 190 | 16 (≈ 32.4 µM)
isolate (source animal id): 191 | > 32
isolate (source animal id): 192 | 16 (≈ 32.4 µM)
isolate (source animal id): 201 | > 32
isolate (source animal id): 202 | > 32
isolate (source animal id): 209 | > 32
isolate (source animal id): 211 | 32 (≈ 64.8 µM)
isolate (source animal id): 220 | 32 (≈ 64.8 µM)
isolate (source animal id): 221 | > 32
isolate (source animal id): 223 | > 32
isolate (source animal id): 233 | 32 (≈ 64.8 µM)
isolate (source animal id): 237 | 32 (≈ 64.8 µM)
isolate (source animal id): 241 | > 32
isolate (source animal id): 252 | 32 (≈ 64.8 µM)
isolate (source animal id): 253 | 16 (≈ 32.4 µM)
isolate (source animal id): 259 | 16 (≈ 32.4 µM)
isolate (source animal id): 260 | 32 (≈ 64.8 µM)
isolate (source animal id): 262 | 32 (≈ 64.8 µM)
isolate (source animal id): 282 | 32 (≈ 64.8 µM)
isolate (source animal id): 287 | 32 (≈ 64.8 µM)
isolate (source animal id): 288 | 8 (≈ 16.2 µM)
isolate (source animal id): 291 | 16 (≈ 32.4 µM)
isolate (source animal id): 293 | 32 (≈ 64.8 µM)
isolate (source animal id): 298 | 16 (≈ 32.4 µM)
isolate (source animal id): 299 | 16 (≈ 32.4 µM)
isolate (source animal id): 300 | 8 (≈ 16.2 µM)
isolate (source animal id): 302 | 16 (≈ 32.4 µM)
isolate (source animal id): 304 | 16 (≈ 32.4 µM)
isolate (source animal id): 306 | 8 (≈ 16.2 µM)
isolate (source animal id): 308 | 8 (≈ 16.2 µM)
isolate (source animal id): 309 | 8 (≈ 16.2 µM)
isolate (source animal id): 313 | 32 (≈ 64.8 µM)
isolate (source animal id): 318 | 16 (≈ 32.4 µM)
isolate (source animal id): 320 | 16 (≈ 32.4 µM)
isolate (source animal id): 321 | 32 (≈ 64.8 µM)
isolate (source animal id): 323 | 16 (≈ 32.4 µM)
isolate (source animal id): 324 | 32 (≈ 64.8 µM)
isolate (source animal id): 326 | > 32
isolate (source animal id): 328 | 32 (≈ 64.8 µM)
isolate (source animal id): 329 | 32 (≈ 64.8 µM)
isolate (source animal id): 333 | 32 (≈ 64.8 µM)
isolate (source animal id): 335 | 16 (≈ 32.4 µM)
isolate (source animal id): 338 | 32 (≈ 64.8 µM)
